From patent US20190365719A1, “COMBINATION TREATMENTS OF HSP90 INHIBITORS FOR ENHANCING TUMOR IMMUNOGENICITY AND METHODS OF USE THEREOF” (Massachusetts Institute of Technology, priority 2018, published 2019)

What was measured:
[1] = Mouse weights and body condition, KP and KPM mice; type: in vivo; settings: four weeks of low dose treatment
Procedure: FIG. 11A is a box plot showing tumor burden analysis in KP and KPM mice treated with vehicle (control) or Hsp90i. FIG. 11B is a graph showing the longitudinal analysis of mouse weights with vehicle or Hsp90i in the drinking water. The mice were treated for up to 4 weeks with vehicle control or a low dose of HSP90i. In FIG. 11B, KP and KPM mice were combined for vehicle and control treatment groups.
(§1) KP and KPM mice were infected intratracheally with Adenovirus expressing Cre recombinase from an SPC promoter at a titer of 2×10^8 plaque forming units per mouse to initiate tumor formation. 8 weeks following tumor initiation, the cohort was randomized and vehicle (control) or Hsp90i (NVP-HSP990) was administered in the drinking water at a dose of 0.5 mg/kg/day for 4 weeks prior to analysis at 12 weeks post tumor induction.

[2] = system: MC38 tumors; assay: Subcutaneous MC38 tumors in immunocompromised NOD-SCID mice; type: in vivo; settings: 0.5 mg/kg/day in drinking water
[3] = system: Ctrl or B2m KO MC38 tumors; assay: Ctrl or B2m KO MC38 tumors in mice; type: in vivo; settings: 0.5 mg/kg/day
Source text: FIGS. 6A-B are graphs showing anti-tumor activity of low-dose HSP90i is dependent on functional MHC Class I expression. Ctrl or B2m KO cells were generated by CRISPR-Cas9 mediated gene editing, and B2m KO cells were confirmed to no longer express MHC-I on the cell surface. FIG. 6A is a line graph showing relative number of viable Ctrl and B2m KO cells measured by standard dye reduction assay following 2-day exposure to increasing concentrations of HSP90i; FIG. 6B is a line graph showing size in mm^3 of Ctrl or B2m KO MC38 tumors in mice treated with vehicle (Veh, solid lines) or 0.5 mg/kg/day HSP90i (dotted lines) over 25 days post implantation.
For CRISPR/Cas9-mediated disruption of B2m, pSpCas9-P2A-GFP plasmid (Addgene #48138) was modified with a control sgRNA sequence ([…]) or an sgRNA targeting B2m ([…]). Log phase MC38 cells were transfected with Ctrl or B2m plasmids using Lipofectamine 2000 (Invitrogen) according to manufacturer's instructions. 24 hours later, single GFP positive cells were sorted into 96-well plates to isolate individual MC38 clones with the desired modification. After 2 weeks, isolated clones were tested by western blot to confirm loss of B2m expression. Ctrl and B2m clones were then passaged through syngeneic mice (C57/B16) to increase the uniformity of tumor establishment and progression in subsequent experiments.

[4] = system: MC38 cells; assay: Immunoblot analysis of MC38 cells; type: cell-based, mouse
Procedure: Protein extraction was performed by washing cells 2× with PBS. A volume of lysis buffer (50 mM Tris pH 7.5, 150 mM NaCl, 1 mM EDTA, 1% Triton-X100, 0.1% SDS, 1× Halt Protease/Phosphatase inhibitor) equal to 1/10 the culture media volume was added directly to the culture dish and incubated for 2-3 min on ice. Lysates were then thoroughly scraped and pipetted into 1.5 mL tubes and incubated for an additional 30 min on ice. Lysates were then cleared by centrifugation at 14,000×g for 15 min and quantified using BCA Assay. Lysates were separated by SDS-PAGE and transferred to 0.2 μm nitrocellulose membranes prior to washing with PBST, blocking with 5% milk in PBST, and incubation with primary antibody overnight at 4° C. All primary antibodies were diluted 1:1000 in 2.5% milk in PBST. Membranes were then washed 4×5 min with PBST and incubated with HRP conjugated secondary antibody at a 1:10,000 dilution in 2.5% milk in PBST, and washed again 4×5 min with PBST. Detection of secondary antibody was performed with SuperSignal West Pico or Femto ECL reagents (Pierce) and digitally imaged on a ChemiDoc (BioRad).
Immunoblotting was performed as described in Example 4. Briefly, protein extraction was performed by washing cells with PBS and then isolating whole cell lysates in lysis buffer (50 mM Tris pH 7.5, 150 mM NaCl, 1 mM EDTA, 1% Triton-X100, 0.1% SDS, 1× Halt Protease/Phosphatase inhibitor) Lysates were then cleared by centrifugation and quantified using BCA Assay. Lysates were separated by SDS-PAGE and transferred to 0.2 μm nitrocellulose membranes prior to washing with PBST, blocking with 5% milk in PBST, and incubation with primary antibody overnight at 4° C. All primary antibodies were diluted 1:1000 in 2.5% milk in PBST. Membranes were then washed and incubated with HRP conjugated secondary antibody. Detection of secondary antibody was performed with SuperSignal West Pico or Femto ECL reagents (Pierce) and digitally imaged on a ChemiDoc (BioRad).

[5] = system: KP lung tumors; assay: Lung tumor burden in KP mouse model of NSCLC; type: in vivo; settings: KP mice, 0.5 mg/kg/day in drinking water for 4 weeks
Source text: A genetically engineered mouse model of non-small cell lung cancer (NSCLC) was used. Mice harboring a Cre-recombinase inducible oncogenic Kras, and a floxed p53 allele (KP) develop tumors following intratracheal administration of Cre recombinase. In addition, a hypermutant mouse model of NSCLC (KPM) was used in which mice have a floxed allele of the MutS homolog 2 (Msh2) gene, a critical component of DNA mismatch repair, in addition to the genetic modifications of the KP mouse model. These models enable the interrogation of Hsp90i strategies in a physiologically relevant NSCLC model with and without hypermutation.
as §1
Tumor burden was analyzed histologically on tumor sections stained with hemotoxylin and eosin (H&E) using standard protocols at the Koch Institute Histology Facility. Tumor burden was calculated by dividing the total area of tumor tissue over the total area of normal lung tissue present in each sample.

COc1cccc(-c2cc(F)ccc2[C@H]2Cc3nc(N)nc(C)c3C(=O)N2)n1 [NVP-HSP990]
mouse mass or body condition [1]: minimal effects on mouse mass or body condition
effect on tumor growth [2]: no effect on tumor growth
growth kinetics of B2m KO MC38 tumors, treated versus vehicle [3]: nearly identical growth kinetics
growth of Ctrl MC38 tumors [3]: reduced the growth of Ctrl tumors
Psmb5 protein levels ([4]; 72 hours): slightly decreased Psmb5 levels
Psmb8 protein levels ([4]; 72 hours): increased the protein levels of Psmb8
expression of downstream markers of IFN-γ signaling (Stat1, Stat3, pStat3, PD-L1) ([4]; Hsp90i 60 nM or IFN-γ 10 ng/mL): minimal to undetectable effect
lung tumor burden versus vehicle [5]: no significant difference
